# Assay results reported in patent publication US20210278408A1, “METHODS OF TREATMENT OF CANCER WITH SUBSTITUTED PYRROLE AND PYRAZOLE COMPOUNDS AND DIAGNOSIS OF CANCERS SUSCEPTIBLE TO TREATMENT WITH SUBSTITUTED PYRROLE AND PYRAZOLE COMPOUNDS” (Bantam Pharmaceutical, LLC, priority 2018, published 2021).
# Like-named read-outs stand apart in the source and are kept apart here.
# System: 407 cancer cell lines
# Assay: Cell viability of cancer cell lines (IC50), CellTiter-Glo Viability Assay, 96 h
# Assay type: cell-based
# Settings: Homo sapiens, read-out: Absolute IC50
# Experimental: Viability was determined by using the 50% inhibitory concentration (IC50) as determined with the CellTiter-Glo® Viability Assay (Promega).
# Experiments were initiated by first thawing and equilibrating the CellTiter-Glo® Buffer to room temperature. The lyophilized CellTiter-Glo® Substrate was also equilibrated to room temperature. The lyophilized substrate was reconstituted with the CellTiter-Glo® buffer to form the CellTiter-Glo® Reagent.
# Cells were harvested during the logarithmic growth period, counted, and the cell concentration adjusted to 4.44×10^4 cells/mL using culture medium.
# Cells were allowed to grow overnight and the following day, the TO reading was obtained by adding 10 μL culture medium to each well of Plate A. The plate was allowed to equilibrate at room temperature for thirty minutes, after which 50 μL CellTiter-Glo® reagent was added to each well. The contents were mixed for 5 min on an orbital shaker to induce cell lysis. Plates were incubated for 20 minutes to stabilize the luminescent signal and the TO luminescence recorded.
# Test plate B was incubated for 96 h in the humidified incubator at 37° C. with 5% CO2.
# Following the incubation, the plate was equilibrated at room temperature for thirty minutes. CellTiter-Glo® (50 μL) was added to each well of the plate and contents mixed for five minutes on an orbital shaker to induce cell lysis. The luminescent signal was allowed to stabilize at room temperature for 20 minutes and the luminescence recorded.
# IC50 (EC50) was calculated using a dose-response curve, fitted using a nonlinear regression model with a sigmoidal dose response. Survival rate was calculated using the formula:
# The Surviving rate (%)=(LumTest article−LumMedium control)/(LumNon-treated−LumMedium control)×100%.
# Absolute IC50 (EC50) was calculated according to the dose-response curve generated by the statistical software (GraphPad Prism 5.0).
smiles,measurement,setting,value
"Cc1nn(-c2nc(-c3ccc(C(F)(F)F)cc3)c(SC(C)C)s2)c(C(=O)O)c1-c1cccc(F)c1 [Compound A197, 4-(3-fluorophenyl)-1-(5-(isopropylthio)-4-(4-(trifluoromethyl)phenyl)thiazol-2-yl)-3-methyl-1H-pyrazole-5-carboxylic acid]",IC50,"JJN-3, 96 h, JJN-3 cells, 96 h",1340 nM
same,IC50,"JVM-2, JVM-2",730 nM
same,IC50,"JVM-3, JVM-3",270 nM
same,IC50,"JeKo-1, 96 h, JeKo-1 cells, 96 h",790 nM
same,IC50,"Jurkat, Jurkat clone E6-1",640 nM
same,IC50,"K562, K-562",570 nM
same,IC50,"KARPAS-299, 96 h, KARPAS-299 cells, 96 h",> 30000 nM
same,IC50,"KARPAS-422, KARPAS-422",780 nM
same,IC50,"KATO III, 96 h, KATO III, 96 h",> 30000 nM
same,IC50,"KG-1, KG-1",1050 nM
same,IC50,"KHOS/NP, 96 h, KHOS/NP cells, 96 h",> 30000 nM
same,IC50,"KM-H2, 96 h, KMH-2 cells, 96 h",1440 nM
same,IC50,"KMS-11, KMS-11",630 nM
same,IC50,"KP-4, 96 h, KP4 cells, 96 h",530 nM
same,IC50,"KYSE-70, KYSE-70",460 nM
same,IC50,"KYSE-150, KYSE-150",750 nM
same,IC50,"KYSE-270, KYSE-270",4780 nM
same,IC50,"KYSE-410, 96 h, KYSE-410 cells, 96 h",> 301000 nM
same,IC50,"Kasumi 1, Kasumi-1",1090 nM
same,IC50,"L-363, L-363",880 nM
same,IC50,"LN-18, 96 h, LN-18 cells, 96 h",520 nM
same,IC50,"LN-229, 96 h, LN-229 cells, 96 h",> 30000 nM
same,IC50,"LNCaP-Clone-FGC, 96 h, LNCaP clone FGC, 96 h",180 nM
same,IC50,"LP-1, LP-1",490 nM
same,IC50,"LS180, LS 180",> 30000 nM
same,IC50,"LS-123, 96 h, LS123 cells, 96 h",> 30000 nM
same,IC50,"LS-411N, LS411N",700 nM
same,IC50,"LS-513, 96 h, LS513 cells, 96 h",700 nM
same,IC50,"LS-1034, 96 h, LS1034 cells, 96 h",> 30000 nM
same,IC50,LoVo,> 30000 nM
same,IC50,"MCF7, MCF7",> 30000 nM
same,IC50,"MDA-MB-231, MDA-MB-231",> 30000 nM
same,IC50,"MDA-MB-415, MDA-MB-415",> 30000 nM
same,IC50,"MDA-MB-436, 96 h",> 30000 nM
same,IC50,"MDA-MB-453, MDA-MB-453",> 30000 nM
same,IC50,"MDA-MB-468, 96 h, MDA-MB-468 cells, 96 h",520 nM
same,IC50,"ME-180, 96 h, ME-180 cells, 96 h",550 nM
same,IC50,"MEG-01, MEG-01",1560 nM
same,IC50,"MES-SA, 96 h, MES-SA cells, 96 h",490 nM
same,IC50,"MES-SA/Dx5, 96 h, MES-SA/DX5 cells, 96 h",340 nM
same,IC50,"MFE-296, 96 h, MFE-296 cells, 96 h",> 30000 nM
same,IC50,"MHCC97H, MHCC97-H",3250 nM
same,IC50,"MIA PaCa-2, MIA PaCa-2",2890 nM
same,IC50,"MKN-1, 96 h, MKN1 cells, 96 h",2930 nM
same,IC50,"MKN-45, 96 h, MKN45, 96 h",> 30000 nM
same,IC50,"MKN-74, 96 h, MKN74 cells, 96 h",> 30000 nM
same,IC50,"ML-2, ML-2",460 nM
same,IC50,"MM1.S, MM.1S",> 30000 nM
same,IC50,"MOLM-13, 96 h, MOLM-13 cells, 96 h",870 nM
same,IC50,"MOLP-8, 96 h, MOLP8 cells, 96 h",990 nM
same,IC50,"MOLT-4, Molt-4",620 nM
same,IC50,"MSTO-211H, 211 h, MsTo 211H",550 nM
same,IC50,"MV4-11, 96 h, MV-4-11 cells, 96 h",320 nM
same,IC50,"MX1, MX-1",> 30000 nM
same,IC50,"NALM-6, NALM-6",700 nM
same,IC50,"NB-4, 96 h, NB4 cells, 96 h",110 nM
same,IC50,"NCI-H23, 96 h, NCI-H23 cells, 96 h",760 nM
same,IC50,"NCI-H69, 96 h, NCI-H69 cells, 96 h",> 30000 nM
same,IC50,"NCI-H82, 96 h",760 nM
same,IC50,"NCI-H146, 96 h, NCI-H146 cells, 96 h",> 30000 nM
same,IC50,"NCI-H187, NCI-H187",330 nM
same,IC50,"NCI-H209, 96 h, NCI-H209 cells, 96 h",> 30000 nM
same,IC50,"NCI-H226, NCI-H226",2080 nM
